Where a SMILES comes first, the peptide text is derived from it.
Key:
[1] = molecular target: T1, BLV envelope (Bovine leukemia virus, UniProt P51519); experiment: Syncytium interference assay, BLV envelope-expressing HeLa effector cells; format: cell-based; details: peptide at 20 μM; BLV envelope-expressing HeLa effectors (Figure 4B)
T1 construct: A fragment encompassing the entire BLV envelope open reading frame; expressed in transfected cells; host or cells: HeLa (co-transfected with pRSV-Rev)
Method: (§1) Briefly, HeLa cells for use as effector cells were transfected with the envelope expression vector pHTE-1 or with equal amounts of pCMV-BLVenv-RRE and pRSV-Rev using the Genejuice™ transfection reagent (Novagen) in accordance with the manufacturer's instructions. 24 h later, 3 × 10^5 effector cells were added to 7 × 10^5 untransfected HeLa target cells in six-well dishes (Nunc). Where appropriate, the co-culture was incubated in the presence of peptides at the concentrations specified. To assess the ability of the peptides to inhibit fusion induced by virally expressed BLV envelope, 2 × 10^5 BLV-infected FLK cells were used as effectors and added to 8 × 10^5 uninfected HeLa cells. After incubation at 37°C for 16 h, cells were washed twice with PBS and fixed in PBS + 3% paraformaldehyde. Assays were performed in triplicate and the number of syncytia (defined as multinucleated cells with 4 or more nuclei) from 10 low-power fields (LPF) per replicate was scored by light microscopy; some assays were stained using Giemsa. A syncytium formation value of 100% is defined as the number of syncytia formed in the absence of peptide but in the presence of 1.5% DMSO.

[2] = molecular target: T2, HTLV-1 envelope (Human T-cell leukemia virus 1, UniProt P03381); experiment: Syncytium interference assay, HTLV-1 envelope-expressing HeLa effector cells; format: cell-based; details: concentrations up to 20 μM and above; result in words
T2 construct: expressed in transfected cells; host or cells: HeLa
Method: as §1

[3] = test system: virally expressed BLV envelope (BLV-infected FLK cells); details: chronically BLV infected FLK effector cells + HeLa target cells; result in words (Figure 3C)
Method: as §1

[4] = Relative peptide solubility by laser nephelometry; format: physicochemical; details: filtered PBS with 1.5 % DMSO, maximum solubility in aqueous solution, two-fold serial dilution from DMSO stock, 200 μl, 1 hr at room temperature, laser nephelometry (forward scattered light, NEPHELOstar), duplicate wells, in solution if reading up to 3-fold the DMSO control
Method: A two-fold serial dilution of peptide in DMSO was performed, and added in duplicate to 96-well microplates. Filtered PBS was added to give a total volume of 200 μl and a final DMSO concentration of 1.5 % in all wells. The plates were incubated at room temperature for 1 hr and the relative solubility of peptides was established by measuring forward scattered light using a NEPHELOstar laser-based microplate nephelometer (BMG LABTECH). Wells containing PBS and 1.5 % DMSO only were used as blanks. Data analysis was carried out using ActivityBase, and peptides giving readings up to and including 3-fold higher than the average reading for the DMSO control were considered to be in solution at the concentrations specified.

T1 sequence (P51519 302-515): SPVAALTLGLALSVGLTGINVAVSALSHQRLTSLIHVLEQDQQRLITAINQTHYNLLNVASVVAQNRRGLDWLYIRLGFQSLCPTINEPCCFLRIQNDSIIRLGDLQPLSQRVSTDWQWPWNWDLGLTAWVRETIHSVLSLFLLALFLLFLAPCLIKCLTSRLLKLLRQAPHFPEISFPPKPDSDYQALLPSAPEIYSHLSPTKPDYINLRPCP
T2 sequence (P03381 313-488): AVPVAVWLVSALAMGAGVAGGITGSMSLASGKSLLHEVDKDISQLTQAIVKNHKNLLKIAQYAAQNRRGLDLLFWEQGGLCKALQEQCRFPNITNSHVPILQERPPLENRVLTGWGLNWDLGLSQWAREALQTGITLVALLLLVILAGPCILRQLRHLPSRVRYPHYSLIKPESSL

CC[C@H](C)[C@H](NC(=O)[C@H](CCCNC(=N)N)NC(=O)[C@H](CC(C)C)NC(=O)[C@H](Cc1ccccc1)NC(=O)[C@H](CS)NC(=O)[C@H](CS)NC(C)=O)C(=O)N[C@@H](CCC(N)=O)C(=O)N[C@@H](CC(N)=O)C(=O)N[C@@H](CC(=O)O)C(=O)N[C@@H](CO)C(=O)N[C@H](C(=O)N[C@H](C(=O)N[C@@H](CCCNC(=N)N)C(=O)N[C@@H](CC(C)C)C(=O)NCC(=O)N[C@@H](CC(=O)O)C(=O)N[C@@H](CC(C)C)C(=O)N[C@@H](CCC(N)=O)C(=O)N1CCC[C@H]1C(=O)N[C@@H](CC(C)C)C(=O)N[C@@H](CO)C(=O)N[C@@H](CCC(N)=O)C(=O)N[C@@H](CCCNC(=N)N)C(=O)N[C@H](C(=O)N[C@@H](CO)C(=O)N[C@H](C(=O)N[C@@H](CC(=O)O)C(=O)N[C@@H](Cc1c[nH]c2ccccc12)C(=O)N[C@@H](CCC(N)=O)C(N)=O)[C@@H](C)O)C(C)C)[C@@H](C)CC)[C@@H](C)CC [P^BLV-391] (Ac-CCFLRIQNDSIIRLGDLQPLSQRVSTDWQ-NH2)
Block of syncytium formation [1]: > 95% | Inhibition of membrane fusion induced by HTLV-1 envelope [2]: failed to inhibit | Inhibition of membrane fusion induced by virally expressed BLV envelope [3]: robustly antagonized | solubility kinetic at 1 h [4]: > 90 µM

From article PMC2533354, “Highly specific inhibition of leukaemia virus membrane fusion by interaction of peptide antagonists with a conserved region of the coiled coil of envelope” (Retrovirology, 2008)
